This note sets out measurements from ChEMBL document CHEMBL4651402, “Screening of ~5500 FDA-approved drugs and clinical candidates for anti-SARS-CoV-2 activity” (2021).

Bridge positions count the residues as written; N and C are the ends. Square brackets hold non-standard residues; d marks the D form. Peptide text beside a SMILES is read from it. * marks the point of attachment. NH(β-GlcNAc) = CC(=O)N[C@@H]1[C@@H](O)[C@H](O)[C@@H](CO)O[C@H]1N*; Dap = NC[C@H](N)C(=O)O

The subject of this assay is SARS-CoV-2. As to the kind of experiment: microbe, parasite or virus in culture. Conditions: Severe acute respiratory syndrome coronavirus 2, Vero C1008, 48 h.

With `CC(C)(Oc1ccc(C2CC2(Cl)Cl)cc1)C(=O)O` (stereo not drawn) [CIPROFIBRATE], the IC50 was more than 20 µM. For the same compound, the IC50 (read-out: pIC50 (converted)) is more than 20 µM.
`O=C(O)/C=C\C(=O)O` [MALEIC ACID] returned an IC50 of more than 20 µM. For the same compound, the IC50 (read-out: pIC50 (converted)) is more than 20 µM.
`Cc1c(-c2c(F)cc(C(N)=O)c3[nH]c4c(c23)CC[C@H](C(C)(C)O)C4)cccc1-n1c(=O)c2cccc(F)c2n(C)c1=O` [BMS-986142]: the IC50 was more than 20 µM. Further, the IC50 (read-out: pIC50 (converted)) is more than 20 µM.
`N=C(N)c1ccc(OCCCCCOc2ccc(C(=N)N)cc2)cc1` [PENTAMIDINE]: the IC50 was more than 20 µM. The IC50 (read-out: pIC50 (converted)) is more than 20 µM.
In turn, `CCC12CCCN3CCc4c(n(c5ccccc45)C(O)(C(=O)OC)C1)C32` (stereo not drawn) had an IC50 of more than 20 µM. The IC50 (read-out: pIC50 (converted)) is more than 20 µM.
`Cc1c(NC(C)C)c(=O)n(-c2ccccc2)n1C` [RAMIFENAZONE] had an IC50 of more than 20 µM. For the same compound, the IC50 (read-out: pIC50 (converted)) is more than 20 µM.
`Cc1cnc(N2CC3(CCOCC3)C2)c(C(=O)Nc2ccc(C(=O)N3CCc4cc(C(=O)Nc5c(C)cccc5F)sc4-c4ccccc43)cc2)c1` [PC-786] displayed an IC50 of more than 20 µM. The IC50 (read-out: pIC50 (converted)) was more than 20 µM.
As to `CCCNC(C)(C)COC(=O)c1ccccc1` [MEPRYLCAINE], the IC50 is more than 20 µM. For the same compound, the IC50 (read-out: pIC50 (converted)) was more than 20 µM.
For `Cc1ncc([N+](=O)[O-])n1CCO` [METRONIDAZOLE], the IC50 was more than 20 µM. Further, under “read-out: pIC50 (converted)”, the IC50 was more than 20 µM.
In turn, `CC(C)=CCN1CC[C@]2(C)c3cc(O)ccc3C[C@H]1[C@H]2C` [(+)-PENTAZOCINE] gave an IC50 of more than 20 µM. Also, the IC50 (read-out: pIC50 (converted)) is more than 20 µM.
As for `O=C(c1ccc(OCCN2CCCCC2)cc1)c1c(-c2ccc(O)cc2)sc2cc(O)ccc12` [RALOXIFENE], the IC50 was more than 20 µM. For the same compound, where the note is “read-out: pIC50 (converted)”, the IC50 is more than 20 µM.
Consider `COc1ccccc1N1CCN(CCCNc2cc(=O)n(C)c(=O)n2C)CC1`, for which the IC50 is more than 20 µM. For the setting “read-out: pIC50 (converted)”, the IC50 is more than 20 µM.
Compound `NC(=O)c1cc([N+](=O)[O-])cc([N+](=O)[O-])c1` [NITROMIDE] yielded an IC50 of more than 20 µM. The IC50 (read-out: pIC50 (converted)) was more than 20 µM.
In turn, `Nc1nc(F)nc2c1ncn2[C@@H]1O[C@H](CO)[C@@H](O)[C@H]1O` registered an IC50 of more than 20 µM. The IC50 (read-out: pIC50 (converted)) was more than 20 µM.
`c1coc(CNc2ncnc3[nH]cnc23)c1` [KINETIN] registered an IC50 of more than 20 µM. Also, under “read-out: pIC50 (converted)”, the IC50 was more than 20 µM.
`CCOc1ccn(-c2ccc(F)cc2)c(=O)c1C(=O)Nc1ccc(Oc2ccnc(N)c2Cl)c(F)c1` [BMS-777607] gave an IC50 of more than 20 µM. Besides, for the setting “read-out: pIC50 (converted)”, the IC50 was more than 20 µM.
In turn, `CCC(=O)OC(OP(=O)(CCCCc1ccccc1)CC(=O)N1C[C@H](C2CCCCC2)C[C@H]1C(=O)O)C(C)C` (stereo partly drawn) showed an IC50 of more than 20 µM. Moreover, the IC50 (read-out: pIC50 (converted)) is more than 20 µM.
In turn, `C=C(C)C(=O)OCCCCCCCCCCCC` gave an IC50 of more than 20 µM. Besides, the IC50 (read-out: pIC50 (converted)) is more than 20 µM.
For the compound `CC1CC(OC(=O)c2ccccc2O)CC(C)(C)C1` (stereo not drawn) [HOMOSALATE], the IC50 is more than 20 µM. For the setting “read-out: pIC50 (converted)”, the IC50 is more than 20 µM.
Turning to `C[C@@H]1C[C@H]2[C@@H]3C[C@H](F)C4=CC(=O)C=C[C@]4(C)[C@@]3(Cl)[C@@H](O)C[C@]2(C)[C@H]1C(=O)COC(=O)C(C)(C)C` [CLOCORTOLONE PIVALATE], the IC50 is more than 20 µM. Further, the IC50 (read-out: pIC50 (converted)) was more than 20 µM.
`O=C(O)[C@@H]1[C@H]2C[C@H]3c4[nH]c5ccccc5c4CCN3C[C@@H]2CC[C@@H]1O` [YOHIMBIC ACID] yielded an IC50 of more than 20 µM. The IC50 (read-out: pIC50 (converted)) was more than 20 µM.
Compound `CC[N+](C)(C)CCC(C(N)=O)(c1ccccc1)c1ccccc1` [AMBUTONIUM] returned an IC50 of more than 20 µM. For the same compound, for the setting “read-out: pIC50 (converted)”, the IC50 is more than 20 µM.
`CC(C)C(C)/C=C/C(C)C1CCC2C3=CC=C4CC(O)CCC4(C)C3CCC21C` (stereo not drawn): the IC50 is more than 20 µM. In addition, the IC50 (read-out: pIC50 (converted)) was more than 20 µM.
On to `C=CCc1ccccc1OCC(O)CNC(C)C` (stereo not drawn) [ALPRENOLOL], for which the IC50 is more than 20 µM. Further, the IC50 (read-out: pIC50 (converted)) was more than 20 µM.
For the compound `NC(=O)NO` [HYDROXYUREA], the IC50 was more than 20 µM. Besides, the IC50 (read-out: pIC50 (converted)) is more than 20 µM.
In turn, `C[14C](C)(c1ccc(O)cc1)c1ccc(O)cc1` had an IC50 of more than 20 µM. Besides, the IC50 (read-out: pIC50 (converted)) is more than 20 µM.
For the compound `CC[N+]1(CC)CCC(OC(=O)C(O)(c2ccccc2)c2ccccc2)C1` (stereo not drawn) [BENZILONIUM], the IC50 is more than 20 µM. Also, for the setting “read-out: pIC50 (converted)”, the IC50 was more than 20 µM.
Compound `CCC(C(=O)OCCN(CC)CC)c1ccccc1` (stereo not drawn) [BUTETAMATE] came in with an IC50 of more than 20 µM. Besides, where the note is “read-out: pIC50 (converted)”, the IC50 was more than 20 µM.
For `C[C@H](NC(=O)Cn1nnc2ccccc2c1=O)c1ccc(OC(F)(F)F)cc1` [ZELATRIAZIN], the IC50 was more than 20 µM. The IC50 (read-out: pIC50 (converted)) was more than 20 µM.
As to `CCCCC/C=C/C/C=C/CCCCCCCC(=O)NC(C)c1ccccc1` (stereo not drawn) [MELINAMIDE], the IC50 is more than 20 µM. Further, under “read-out: pIC50 (converted)”, the IC50 was more than 20 µM.
In turn, `CC1CNc2c(cccc2S(=O)(=O)N[C@@H](CCCNC(=N)N)C(=O)N2CC[C@H](C)C[C@@H]2C(=O)O)C1` (stereo partly drawn) registered an IC50 of more than 20 µM. Besides, for the setting “read-out: pIC50 (converted)”, the IC50 is more than 20 µM.
On to `CC(=O)OCC[N+](C)(C)C` [ACETYLCHOLINE], for which the IC50 is more than 20 µM. Further, for the setting “read-out: pIC50 (converted)”, the IC50 was more than 20 µM.
In turn, `CCN(CCCC(=O)C1CCCCC1)[C@@H](C)Cc1ccc(OC)cc1` [DEXSECOVERINE] came in with an IC50 of more than 20 µM. The IC50 (read-out: pIC50 (converted)) was more than 20 µM.
In turn, `CC[N+](C)(C)Cc1ccccc1Br` [BRETYLIUM] yielded an IC50 of more than 20 µM. In addition, the IC50 (read-out: pIC50 (converted)) was more than 20 µM.
`COc1ccc(C(=O)c2ccccc2O)c(O)c1` [DIOXYBENZONE] displayed an IC50 of more than 20 µM. For the same compound, the IC50 (read-out: pIC50 (converted)) was more than 20 µM.
Consider `CC(S)C(=O)NCC(=O)O` (stereo not drawn) [TIOPRONIN], for which the IC50 is more than 20 µM. Also, for the setting “read-out: pIC50 (converted)”, the IC50 was more than 20 µM.
For `CC(=O)N[C@@H]1[C@@H](O)[C@H](O)[C@@H](CO)O[C@H]1NC(=O)C[C@@H]1NC(=O)[C@H](CC(C)C)NC(=O)[C@@H]2CNC(=O)C[C@H](NC1=O)C(=O)N[C@@H](Cc1c[nH]c3ccccc13)C(=O)N[C@@H](Cc1ccccc1)C(=O)N2` [NEPADUTANT] (cyclo(D(NH(β-GlcNAc))DWF[Dap]L); lactam 2-5), the IC50 was more than 20 µM. For the same compound, the IC50 (read-out: pIC50 (converted)) was more than 20 µM.
Compound `Cc1ncc([N+](=O)[O-])n1CCOC(N)=O` [BAMNIDAZOLE] displayed an IC50 of more than 20 µM. Further, the IC50 (read-out: pIC50 (converted)) is more than 20 µM.
Take `O=C(O)c1cc(=O)c2c(OCC(O)COc3cccc4oc(C(=O)O)cc(=O)c34)cccc2o1` [CROMOLYN]: the IC50 was more than 20 µM. For the same compound, the IC50 (read-out: pIC50 (converted)) is more than 20 µM.
For `O=C(Nc1ccc(C(=O)O)c(O)c1)c1ccccc1` [BENZOYLPAS], the IC50 is more than 20 µM. Besides, for the setting “read-out: pIC50 (converted)”, the IC50 is more than 20 µM.
`CCCCN1CCC(CNC(=O)c2c3n(c4ccccc24)CCCO3)CC1` [PIBOSEROD]: the IC50 was more than 20 µM. In addition, where the note is “read-out: pIC50 (converted)”, the IC50 is more than 20 µM.
On to `COc1ccc2c3c1O[C@H]1[C@@H](O)C=C[C@@]4(O)[C@@H](C2)N(C)CC[C@]314`, for which the IC50 is more than 20 µM. The IC50 (read-out: pIC50 (converted)) was more than 20 µM.
The compound `Cc1cnc(C(=O)O)c[n+]1[O-]` [ACIPIMOX] gave an IC50 of more than 20 µM. Also, under “read-out: pIC50 (converted)”, the IC50 was more than 20 µM.
The compound `NC(COCc1ccccc1)C(=O)O` (stereo not drawn) yielded an IC50 of more than 20 µM. Besides, the IC50 (read-out: pIC50 (converted)) is more than 20 µM.
